By IC50 is commonly meant the concentration that gives 50% inhibition.

Structures can show the parent of a compound that is named as a salt. Where two headings read alike, the source gives them in different places. Bounds are passed on as bounds.

Here are results for 17 molecules from patent US20260034111A1, “NOVEL HETEROCYCLES AS sPLA2-X INHIBITORS” (Cayman Chemical Company Incorporated, priority 2022, published 2026).

Holding throughout (format): biochemical
Conditions in all cases: class symbols

The target in assay [1] is T1, recombinant human sPLA2-IIA enzyme (Homo sapiens, UniProt P14555).
T1 construct: made in house; host or cells: E. coli
T1 sequence (P14555 21-144): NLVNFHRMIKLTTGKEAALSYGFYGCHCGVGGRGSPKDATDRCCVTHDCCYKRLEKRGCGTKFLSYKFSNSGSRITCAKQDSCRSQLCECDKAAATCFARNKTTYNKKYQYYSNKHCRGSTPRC
As to the kind of experiment: sPLA2-IIA enzyme inhibition assay (thio-PC substrate, DTNB detection, absorbance 410 nm). The source says: (§1) Screening Compounds for Inhibition of sPLA2-X, sPLA2-V, and sPLA2-IIA Enzyme Activity
(§2) These sPLA2 enzymes hydrolyze the sn-2 acyl chains of glycerophospholipids, resulting in the release of a free fatty acid and a lysophospholipid. In the case of the thio-PC substrate, this enzymatic hydrolysis results in a free sulfhydryl group remaining on the lysophospholipid. This free sulfhydryl reacts with DTNB to produce the chromogenic product 5-nitro-2-thiobenzoic acid (TNB) which can be quantitated by absorbance at 410 nm. The amount of TNB produced reflects the hydrolytic activity of the enzyme.
(§3) The recombinant human sPLA2 groups IIA, V, and X enzymes were expressed in E. coli and purified to >90% purity by standard biochemical methods.
(§4) Procedure of Enzyme Inhibition for sPLA2-X • 1. […] Dilute the test compounds in 100% DMSO by half-log steps in a 96-well dilution plate using columns 1-11 (one compound per row). Column 12 contains DMSO alone with no compound. • 3. Prepare a 3.5 mM thio-PC substrate solution by drying down 7.2 mg of stock thio-PC in ethanol under a gentle stream of N2 gas. When dry, add 4 mL assay buffer (25 mM Tris, pH7.4; 100 mM KCl; 10 mM CaCl2; 0.1% Triton X-100) and warm in a 37° C. water bath for 20 minutes with intermittent vortexing. • 4. Prepare an “enzyme containing” reaction mix with the following components: 20.4 mL assay buffer; 2 mL DTNB (20 mM in 800 mM Tris, pH8.0); and 11.8 mg recombinant human sPLA2-X enzyme (>95% pure) diluted to a total of 0.8 mL assay buffer. • 5. Prepare a “no enzyme” reaction mix with the following components: 477 μL assay buffer and 45 μL DTNB. • 6. Dispense 58 μL “no enzyme” reaction mix into each of 8 wells (columns 23 and 24, rows M-P). • 7. Dispense 58 μL “enzyme containing” reaction mix into all remaining wells on the plate. • 8. From the 96-well compound dilution plate, add 2 μL from each well for each compound to each of 4 wells with “enzyme containing” reaction mix. Columns 23 and 24 on the assay plate will contain only DMSO (vehicle control). […] After compound addition, mix the contents of each well to ensure that the DMSO is evenly distributed in the well. • 9. Cover the plate and incubate in the dark at room temperature for 15 minutes. • 10. Add 10 μL of thio-PC substrate to all wells. The final concentration of thio-PC in the reactions is 0.5 mM. • 11. Cover the plate and incubate in the dark at room temperature for 30 minutes. • 12. Measure the absorbance of all wells at 410 nm. • 13. Determine the mean absorbance of the “no enzyme” wells. Subtract this value from the absorbance values determined for all other wells (these are now background corrected data). • 14. […] Procedure of Enzyme Inhibition for sPLA2-V • 1. […] Dilute the test compounds in 100% DMSO by half-log steps in a 96-well dilution plate using columns 1-11. Column 12 contains DMSO alone with no compound. • 3. Prepare a 3.5 mM thio-PC substrate solution by drying down 7.2 mg of stock thio-PC in ethanol under a gentle stream of N2 gas. When dry, add 4 mL assay buffer (25 mM Tris, pH7.4; 100 mM KCl; 10 mM CaCl2; 0.1% Triton X-100) and warm in a 37° C. water bath for 20 minutes with intermittent vortexing. • 4. Prepare an “enzyme containing” reaction mix with the following components: 20.4 mL assay buffer; 2 mL DTNB (20 mM in 800 mM Tris, pH8.0); and 12 mg recombinant human sPLA2-V enzyme (>95% pure) diluted to a total of 0.8 mL assay buffer. • 5. Prepare a “no enzyme” reaction mix with the following components: 477 μL assay buffer and […]. • 6. Dispense 58 μL “no enzyme” reaction mix into each of 8 wells (columns 23 and 24, rows M-P). • 7. Dispense 58 μL “enzyme containing” reaction mix into all remaining wells on the plate. • 8. From the 96-well compound dilution plate, add 2 μL from each well for each compound to each of 4 wells with “enzyme containing” reaction mix. Columns 23 and 24 on the assay plate will contain only DMSO (vehicle control).

In assay [2] the target is T2, recombinant human sPLA2-V enzyme (Homo sapiens, UniProt P39877).
T2 construct: made in house; host or cells: E. coli
T2 sequence (P39877 21-138): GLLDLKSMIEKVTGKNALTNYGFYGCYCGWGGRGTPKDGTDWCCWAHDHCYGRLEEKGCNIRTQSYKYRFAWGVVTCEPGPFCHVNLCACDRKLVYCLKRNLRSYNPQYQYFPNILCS
The assay can be described thus: sPLA2-V enzyme inhibition assay (thio-PC substrate, DTNB detection, absorbance 410 nm).
Source text: as §1, §2, §3, §4

The target in a further assay is T3, sPLA2-X protein (Homo sapiens, UniProt O15496).
T3 sequence (O15496 43-165): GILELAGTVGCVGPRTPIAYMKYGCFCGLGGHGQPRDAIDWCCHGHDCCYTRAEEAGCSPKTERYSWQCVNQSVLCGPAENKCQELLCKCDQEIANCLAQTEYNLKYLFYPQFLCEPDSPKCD
As to the kind of experiment: sPLA2-X enzyme inhibition assay (thio-PC substrate, DTNB detection, absorbance 410 nm). Further details: made in house; host or cells: E. coli.
Source text: as §1, §2, §3, §4

[3] abbreviates: read-out: sPLA2 Type IIa Inhibition (IC50; nM).
[4] abbreviates: read-out: sPLA2 Type V Inhibition (IC50; nM).
[5] abbreviates: read-out: sPLA2 Type X Inhibition (IC50; nM).
[6] abbreviates: sPLA2 Type X Inhibition (IC50; nM).

With `NC(=O)c1cc2ccc(OC(F)(F)F)cc2n1-c1ccc2c(c1)C(CC(=O)O)CO2` (stereo not drawn) [Compound 1, 2-(5-(2-carbamoyl-6-(trifluoromethoxy)-1H-indol-1-yl)-2,3-dihydrobenzofuran-3-yl)acetic acid], the IC50 was above 1000 nM in assay [1] (setting [3]), above 5000 nM in assay [2] (setting [4]) and 50 to 200 nM on sPLA2-X protein (setting [5]).
The corresponding values for `NC(=O)c1cc2ccc(OC(F)(F)F)cc2n1-c1cccc([C@H](N)CC(=O)O)c1` [Compound 42, (R)-3-amino-3-(3-(2-carbamoyl-6-(trifluoromethoxy)-1H-indol-1-yl)phenyl)propanoic acid] are above 1000 nM, above 5000 nM and above 200 nM.
Turning to `NC(=O)c1[se]c2ccc(OC(F)(F)F)cc2c1-c1cccc(C2CC2C(=O)O)n1` (racemic) [Compound 55, trans-(rac)-2-(6-(2-carbamoyl-5-(trifluoromethoxy)benzo[b]selenophen-3-yl)pyridin-2-yl)cyclopropane-1-carboxylic acid], the IC50 is above 1000 nM in assay [1] (sPLA2 Type IIa Inhibition (IC50; nM)), above 5000 nM in assay [2] (sPLA2 Type V Inhibition (IC50; nM)) and above 200 nM against sPLA2-X protein (setting [6]).
As for `NC(=O)c1cc2ccc(OC(F)(F)F)cc2n1-c1cccc(CC2(C(=O)O)CCC2)c1` [Compound 10, 1-(3-(2-carbamoyl-6-(trifluoromethoxy)-1H-indol-1-yl)benzyl)cyclobutane-1-carboxylic acid], the IC50 in assay [1] (setting [3]) was in the range of 500 to 1000 nM; in assay [2] (setting [4]), 500 to 1500 nM; at sPLA2-X protein (setting [5]), 20 to 50 nM.
The corresponding values for `NC(=O)c1cc2ccc(OC(F)(F)F)cc2n1-c1cccc(C(F)(F)CO)c1` [Compound 46, 1-(3-(1,1-difluoro-2-hydroxyethyl)phenyl)-6-(trifluoromethoxy)-1H-indole-2-carboxamide] are above 1000 nM, above 5000 nM and 50 to 200 nM.
In the same order, the values of `NC(=O)c1cc2ccc(OC(F)(F)F)cc2n1-c1cccc(C[C@H](N)C(=O)O)c1` [Compound 24, (S)-2-amino-3-(3-(2-carbamoyl-6-(trifluoromethoxy)-1H-indol-1-yl)phenyl)propanoic acid TFA salt] are above 1000 nM, above 5000 nM and above 200 nM.
The corresponding values for `NC(=O)c1sc2ccccc2c1-c1cccc(CCC(=O)O)c1` [Compound 13, 3-(3-(2-carbamoylbenzo[b]thiophen-3-yl)phenyl)propanoic acid] are above 1000 nM, above 5000 nM and above 200 nM.
With `NC(=O)c1cc2ccc(OC(F)(F)F)cc2n1-c1cccc(C2(CC(=O)O)CC2)n1` [Compound 59, 2-(1-(6-(2-carbamoyl-6-(trifluoromethoxy)-1H-indol-1-yl)pyridin-2-yl)cyclopropyl)acetic acid], the IC50 in assay [1] (setting [3]) was above 1000 nM; in assay [2] (setting [4]), above 5000 nM; at sPLA2-X protein (setting [5]), below 20 nM.
The corresponding values for `CS(=O)(=O)OCC(F)(F)c1cccc(-n2c(C(N)=O)cc3ccc(OC(F)(F)F)cc32)c1` [Compound 47, 2-(3-(2-carbamoyl-6-(trifluoromethoxy)-1H-indol-1-yl)phenyl)-2,2-difluoroethyl methanesulfonate] are above 1000 nM, above 5000 nM and above 200 nM.
For the molecule `NC(=O)c1cc2ccc(OC(F)(F)F)cc2n1-c1ccc2c(c1)C(CC(=O)O)CO2` (single isomer, unassigned; (+)) [Compound 1a, (+)-2-(5-(2-carbamoyl-6-(trifluoromethoxy)-1H-indol-1-yl)-2,3-dihydrobenzofuran-3-yl)acetic acid], the half-maximal inhibitory concentration (IC50) is above 1000 nM in assay [1] (setting [3]), above 5000 nM in assay [2] (setting [4]) and 50 to 200 nM at sPLA2-X protein (setting [5]).
Consider `NC(=O)c1[se]c2ccc(OC(F)(F)F)cc2c1-c1cccc(CCC(=O)O)c1` [Compound 29, 3-(3-(2-carbamoyl-5-(trifluoromethoxy)benzo[b]selenophen-3-yl)phenyl)propanoic acid], for which the figures for the IC50 (in assay [1] (setting [3]); in assay [2] (setting [4]); against sPLA2-X protein (setting [6])) were 500 to 1000 nM, 1500 to 5000 nM and 50 to 200 nM, respectively.
Consider `NC(=O)c1cc2ccc(OC(F)(F)F)cc2n1-c1cccc(CC2(C(=O)O)CC2)c1` [Compound 19, 1-(3-(2-carbamoyl-6-(trifluoromethoxy)-1H-indol-1-yl)benzyl)cyclopropane-1-carboxylic acid], for which the IC50 in assay [1] (setting [3]) is above 1000 nM; in assay [2] (setting [4]) it was above 5000 nM; on sPLA2-X protein (setting [5]), above 200 nM.
The corresponding values for `NC(=O)c1sc2ccc(OC(F)(F)F)cc2c1-c1ccc2c(c1)C(CC(=O)O)CO2` (stereo not drawn) [Compound 7, 2-(5-(2-carbamoyl-5-(trifluoromethoxy)benzo[b]thiophen-3-yl)-2,3-dihydrobenzofuran-3-yl)acetic acid] are above 1000 nM, above 5000 nM and above 200 nM.
In the same order, the values of `NC(=O)c1cc2ccc(OC(F)(F)F)cc2n1-c1ccc2oc(C(=O)O)cc2c1` [Compound 16, 5-(2-carbamoyl-6-(trifluoromethoxy)-1H-indol-1-yl)benzofuran-2-carboxylic acid] are above 1000 nM, above 5000 nM and 50 to 200 nM.
For `NC(=O)c1[se]c2ccc(OC(F)(F)F)cc2c1-c1cccc(C2(CC(=O)O)CC2)c1` [Compound 34, 2-(1-(3-(2-carbamoyl-5-(trifluoromethoxy)benzo[b]selenophen-3-yl)phenyl)cyclopropyl)acetic acid], the IC50 in assay [1] (setting [3]) was above 1000 nM; in assay [2] (setting [4]), 1500 to 5000 nM; on sPLA2-X protein (setting [6]) it was 20 to 50 nM.
As for `NCc1cccc(-n2c(C(N)=O)cc3ccc(OC(F)(F)F)cc32)n1` [Compound 27, 1-(6-(aminomethyl)pyridin-2-yl)-6-(trifluoromethoxy)-1H-indole-2-carboxamide TFA salt], the IC50 is above 1000 nM in assay [1] (setting [3]), above 5000 nM in assay [2] (setting [4]) and above 200 nM on sPLA2-X protein (setting [5]).
In the same order, the values of `NC(=O)c1cc2ccc(OC(F)(F)F)cc2n1-c1cccc(N2CC(C(=O)O)C2)n1` [Compound 52, 1-(6-(2-carbamoyl-6-(trifluoromethoxy)-1H-indol-1-yl)pyridin-2-yl)azetidine-3-carboxylic acid] are above 1000 nM, 1500 to 5000 nM and 50 to 200 nM.
